# Measurements reported in paper PMC9858213, “What Is Authentic Maple Water? A Twelve-Month Shelf-Life Study of the Chemical Composition of Maple Water and Its Biological Activities” (Foods, 2023).
# pIC50: −log10 of the molar value.
# Molecular target: T1, tyrosinase
# T1 construct: gene PPO1
# Assay: absorbance at […] nm, tyrosinase inhibition in 96-well plate
# Assay type: biochemical
# Settings: L-tyrosine substrate ([…] µL of […] in […] µL), phosphate buffer pH […], room temperature, […] min
compound,measurement,value
COc1cc(C(CO)C(c2ccc(O)c(OC)c2)c2ccc(O)c(OC)c2)ccc1O (stereo not shown) [quebecol],pIC50,5.99
